Experimental data published in patent US11685746B2, “Heteroaryl compounds for treating Huntington's disease” (PTC THERAPEUTICS, INC., priority 2018, dated 2023).

Test system: Endogenous Huntingtin Protein
Assay: Endogenous Huntingtin Protein Assay (MSD plates, MW1 or MAB2166 capture antibody)
Assay type: cell-based
Settings: Table 1
How it was run: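 Sandwich MSD immunoassay: plates were coated overnight at 4° C with MW1 (expanded polyQ) or MAB2166 capture antibody at 1 μg/mL, then blocked with 5% BSA. Samples were bound overnight at 4° C, followed by rabbit mAb #5656S and SULFO-TAG anti-rabbit detection, each at 0.25 μg/mL for 1 h at room temperature. Signal was read by electrochemiluminescence.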

Row | SMILES | IC50 [nM]
1 | C[C@H]1C[C@@H](N(C)c2nc3sc(-c4ccc(-c5cn[nH]c5)c5cc[nH]c45)nc3s2)CCN1 [Compound 97, N-methyl-N-[(2S,4S)-2-methylpiperidin-4-yl]-5-[4-(1H-pyrazol-4-yl)-1H-indol-7-yl][1,3]thiazolo[5,4-d][1,3]thiazol-2-amine] | ≤ 100
2 | CCn1cc(-c2cnc(-c3nc4sc(N(C)C5CC(C)(C)NC(C)(C)C5)nc4s3)c(O)c2)cn1 [Compound 50, 5-(1-ethyl-1H-pyrazol-4-yl)-2-{5-[methyl(2,2,6,6-tetramethylpiperidin-4-yl)amino][1,3]thiazolo[5,4-d][1,3]thiazol-2-yl}pyridin-3-ol] | 100 to 500
3 | C[C@H]1C[C@H](Oc2nc3sc(-c4ncc(-c5cn[nH]c5)c5cc[nH]c45)nc3s2)CCN1 [Compound 109, 7-(5-{[(2S,4R)-2-methylpiperidin-4-yl]oxy}[1,3]thiazolo[5,4-d][1,3]thiazol-2-yl)-4-(1H-pyrazol-4-yl)-1H-pyrrolo[2,3-c]pyridine] | ≤ 100
4 | CN(c1nc2sc(-c3ncc(-c4cn[nH]c4)c4cc[nH]c34)nc2s1)[C@@H]1C[C@H]2CC[C@@H](C1)N2 [Compound 184, N-[(1R,3s,5S)-8-azabicyclo[3.2.1]octan-3-yl]-N-methyl-5-[4-(1H-pyrazol-4-yl)-1H-pyrrolo[2,3-c]pyridin-7-yl][1,3]thiazolo[5,4-d][1,3]thiazol-2-amine] | ≤ 100
5 | CN(c1nc2sc(-c3ncc(-c4cn[nH]c4)cn3)nc2s1)C1CCNCC1 [Compound 201, N-methyl-N-(piperidin-4-yl)-5-[5-(1H-pyrazol-4-yl)pyrimidin-2-yl][1,3]thiazolo[5,4-d][1,3]thiazol-2-amine] | 500 to 1000
6 | CC1CC(N(C)c2nc3sc(-c4ncc(Br)c5cc[nH]c45)nc3s2)CCN1C (centres unmarked) [Compound 124, 5-(4-bromo-1H-pyrrolo[2,3-c]pyridin-7-yl)-N-(1,2-dimethylpiperidin-4-yl)-N-methyl[1,3]thiazolo[5,4-d][1,3]thiazol-2-amine] | 100 to 500
7 | CCN1CCC(N(C)c2nc3sc(-c4ncc(-c5cn[nH]c5)c5cc[nH]c45)nc3s2)CC1 [Compound 122, N-(1-ethylpiperidin-4-yl)-N-methyl-5-[4-(1H-pyrazol-4-yl)-1H-pyrrolo[2,3-c]pyridin-7-yl][1,3]thiazolo[5,4-d][1,3]thiazol-2-amine] | ≤ 100
8 | Cn1cc2cc(-c3nc4sc(N5CCNCC5)nc4s3)cc(C#N)c2n1 [Compound 7, 2-methyl-5-[5-(piperazin-1-yl)[1,3]thiazolo[5,4-d][1,3]thiazol-2-yl]-2H-indazole-7-carbonitrile] | 500 to 1000
9 | CN(c1nc2sc(-c3ncc(-c4cn[nH]c4)n4ccnc34)nc2s1)C1CCNCC1 [Compound 101, N-methyl-N-(piperidin-4-yl)-5-[5-(1H-pyrazol-4-yl)imidazo[1,2-a]pyrazin-8-yl][1,3]thiazolo[5,4-d][1,3]thiazol-2-amine] | 1000 to 3000
10 | CN(c1nn2c(Cl)c(-c3ccc(-c4cn[nH]c4)cc3O)nc2s1)C1CC(C)(C)NC(C)(C)C1 [Compound 9, 2-{5-chloro-2-[methyl(2,2,6,6-tetramethylpiperidin-4-yl)amino]imidazo[2,1-b][1,3,4]thiadiazol-6-yl}-5-(1H-pyrazol-4-yl)phenol] | 100 to 500
11 | CN(c1nc2sc(-n3ccc(-c4cn[nH]c4)cc3=O)nc2s1)C1CC(C)(C)NC(C)(C)C1 [Compound 181, 1-{5-[methyl(2,2,6,6-tetramethylpiperidin-4-yl)amino][1,3]thiazolo[5,4-d][1,3]thiazol-2-yl}-4-(1H-pyrazol-4-yl)pyridin-2(1H)-one] | ≤ 100
12 | CCN1CCC(N(C)c2nc3sc(-c4ncc(-c5cn[nH]c5)cc4O)nc3s2)CC1 [Compound 207, 2-{5-[(1-ethylpiperidin-4-yl)(methyl)amino][1,3]thiazolo[5,4-d][1,3]thiazol-2-yl}-5-(1H-pyrazol-4-yl)pyridin-3-ol] | ≤ 100
13 | CC1CC(N(C)c2nc3sc(-c4cnc(-c5cn[nH]c5)cn4)nc3s2)CCN1C (centres unmarked) [Compound 132, N-(1,2-dimethylpiperidin-4-yl)-N-methyl-5-[5-(1H-pyrazol-4-yl)pyrazin-2-yl][1,3]thiazolo[5,4-d][1,3]thiazol-2-amine] | 100 to 500
14 | Cc1cn2cc(-c3nn4cc(C5CCNCC5)nc4s3)cc(C#N)c2n1 [Compound 29, 2-methyl-6-[6-(piperidin-4-yl)imidazo[2,1-b][1,3,4]thiadiazol-2-yl]imidazo[1,2-a]pyridine-8-carbonitrile] | 100 to 500
15 | CN(c1nc2sc(-c3cnc(-c4cnn(C)c4)cn3)nc2s1)C1CC(C)(C)NC(C)(C)C1 [Compound 94, N-methyl-5-[5-(1-methyl-1H-pyrazol-4-yl)pyrazin-2-yl]-N-(2,2,6,6-tetramethylpiperidin-4-yl)[1,3]thiazolo[5,4-d][1,3]thiazol-2-amine] | ≤ 100
16 | Cn1cc2cc(-c3nc4sc(N5CC6(CCNCC6)C5)nc4s3)cc(F)c2n1 [Compound 176, 5-[5-(2,7-diazaspiro[3.5]nonan-2-yl)[1,3]thiazolo[5,4-d][1,3]thiazol-2-yl]-7-fluoro-2-methyl-2H-indazole] | 100 to 500

Row | SMILES | IC50 [nM]
17 | CN(c1nc2sc(-c3ncc(-c4cnsc4)cc3O)nc2s1)C1CCNCC1 [Compound 216, 2-{5-[methyl(piperidin-4-yl)amino][1,3]thiazolo[5,4-d][1,3]thiazol-2-yl}-5-(1,2-thiazol-4-yl)pyridin-3-ol] | ≤ 100
18 | CCCN1CCC(N(C)c2nc3sc(-c4ncc(-c5cn[nH]c5)cc4O)nc3s2)CC1 [Compound 206, 2-{5-[methyl(1-propylpiperidin-4-yl)amino][1,3]thiazolo[5,4-d][1,3]thiazol-2-yl}-5-(1H-pyrazol-4-yl)pyridin-3-ol] | ≤ 100
19 | Oc1cc(-c2cn[nH]c2)ccc1-c1nc2sc(N3CCNCC3)nc2s1 [Compound 6, 2-[5-(piperazin-1-yl)[1,3]thiazolo[5,4-d][1,3]thiazol-2-yl]-5-(1H-pyrazol-4-yl)phenol] | 1000 to 3000
20 | CN(c1nc2sc(-c3cc(F)c(-c4cn[nH]c4)c(F)c3)nc2s1)C1CCNCC1 [Compound 21, 5-[3,5-difluoro-4-(1H-pyrazol-4-yl)phenyl]-N-methyl-N-(piperidin-4-yl)[1,3]thiazolo[5,4-d][1,3]thiazol-2-amine] | 1000 to 3000
21 | C[C@@H]1C[C@@H](Oc2nc3sc(-c4ccc(-c5cn[nH]c5)c5cc[nH]c45)nc3s2)CCN1 [Compound 82, 7-(5-{[(2R,4S)-2-methylpiperidin-4-yl]oxy}[1,3]thiazolo[5,4-d][1,3]thiazol-2-yl)-4-(1H-pyrazol-4-yl)-1H-indole] | ≤ 100
22 | Oc1cc(-c2cn[nH]c2)ccc1-c1nc2sc(NC3CCNCC3)nc2s1 [Compound 22, 2-[5-(piperidin-4-ylamino)[1,3]thiazolo[5,4-d][1,3]thiazol-2-yl]-5-(1H-pyrazol-4-yl)phenol] | ≤ 100
23 | CN(c1nc2sc(-c3ccc(-c4cn[nH]c4)cn3)nc2s1)[C@@H]1C[C@H]2CC[C@@H](C1)N2 [Compound 174, N-[(1R,3s,5S)-8-azabicyclo[3.2.1]octan-3-yl]-N-methyl-5-[5-(1H-pyrazol-4-yl)pyridin-2-yl][1,3]thiazolo[5,4-d][1,3]thiazol-2-amine] | ≤ 100
24 | CN(c1nc2sc(-c3cnc(-c4cn[nH]c4)nc3)nc2s1)C1CC(C)(C)NC(C)(C)C1 [Compound 137, N-methyl-5-[2-(1H-pyrazol-4-yl)pyrimidin-5-yl]-N-(2,2,6,6-tetramethylpiperidin-4-yl)[1,3]thiazolo[5,4-d][1,3]thiazol-2-amine] | ≤ 100
25 | CN1CCC(N(C)c2nc3sc(-c4ncc(-c5cn[nH]c5)cc4O)nc3s2)CC1 [Compound 217, 2-{5-[methyl(1-methylpiperidin-4-yl)amino][1,3]thiazolo[5,4-d][1,3]thiazol-2-yl}-5-(1H-pyrazol-4-yl)pyridin-3-ol] | ≤ 100
26 | C[C@@H]1C[C@@H](Oc2nc3sc(-c4ccc(-c5cn[nH]c5)c5nc[nH]c45)nc3s2)CCN1 [Compound 68, 7-(5-{[(2R,4S)-2-methylpiperidin-4-yl]oxy}[1,3]thiazolo[5,4-d][1,3]thiazol-2-yl)-4-(1H-pyrazol-4-yl)-1H-benzimidazole] | ≤ 100
27 | CN(c1nc2sc(-c3ccc(-c4cn[nH]c4)c4cc[nH]c34)nc2s1)[C@@H]1C[C@H]2CC[C@@H](C1)N2 [Compound 183, N-[(1R,3s,5S)-8-azabicyclo[3.2.1]octan-3-yl]-N-methyl-5-[4-(1H-pyrazol-4-yl)-1H-indol-7-yl][1,3]thiazolo[5,4-d][1,3]thiazol-2-amine] | ≤ 100
28 | CN(c1nc2sc(-c3ccc(-c4ccn(C)c(=O)c4)cc3O)nc2s1)C1CCNCC1 [Compound 36, 4-(3-hydroxy-4-{5-[methyl(piperidin-4-yl)amino][1,3]thiazolo[5,4-d][1,3]thiazol-2-yl}phenyl)-1-methylpyridin-2(1H)-one] | 100 to 500
29 | Cc1cn2cc(-c3nc4sc(C5=CCNCC5)nc4s3)nc2c(C)n1 [Compound 41, 6,8-dimethyl-2-[5-(1,2,3,6-tetrahydropyridin-4-yl)[1,3]thiazolo[5,4-d][1,3]thiazol-2-yl]imidazo[1,2-a]pyrazine] | 100 to 500
30 | CN(c1nc2sc(-n3ccc(-c4cn[nH]c4)cc3=O)nc2s1)[C@@H]1C[C@H]2CC[C@@H](C1)N2C [Compound 178, 1-(5-{methyl[(1R,3s,5S)-8-methyl-8-azabicyclo[3.2.1]octan-3-yl]amino}[1,3]thiazolo[5,4-d][1,3]thiazol-2-yl)-4-(1H-pyrazol-4-yl)pyridin-2(1H)-one] | ≤ 100
31 | C[C@H]1C[C@@H](N(C)c2nc3sc(-c4ncc(-c5cnn(C)c5)c5cc[nH]c45)nc3s2)CCN1 [Compound 95, N-methyl-N-[(2S,4S)-2-methylpiperidin-4-yl]-5-[4-(1-methyl-1H-pyrazol-4-yl)-1H-pyrrolo[2,3-c]pyridin-7-yl][1,3]thiazolo[5,4-d][1,3]thiazol-2-amine] | ≤ 100
32 | C[C@H]1C[C@H](N(C)c2nc3sc(-c4ncc(-c5cn[nH]c5)c5cc[nH]c45)nc3s2)CCN1 [Compound 75, N-methyl-N-[(2S,4R)-2-methylpiperidin-4-yl]-5-[4-(1H-pyrazol-4-yl)-1H-pyrrolo[2,3-c]pyridin-7-yl][1,3]thiazolo[5,4-d][1,3]thiazol-2-amine] | ≤ 100
